What was measured:
[1] = test system: cultured chick heart cells; assay: Effect of valinomycin on tetraphenylborate enhancement of Tc-MIBI accumulation in high Ko buffer (Table 1); type: cell-based; conditions: for Tc-MIBI Net Uptake: n = 3
Procedure: Monolayers of spontaneously contractile chick ventricular myocardial cells were obtained from disaggregated 10-day old chick embryo hearts by a slight modification of previously published methods (Horres, C. R., et al., In Pinson, A. (ed.), The Heart Cell in Culture, Boca Raton, CRC Press, pp. 77-108 (1987)). Hearts were trimmed of connective tissue and atria, finely minced and serially exposed to 0.024% (w/v) trypsin in Ca^2+ - and Mg^2+ - free Earle's salt solution for 7 minutes at 37° C. Gentle trituration and agitation on an orbital shaker bath aided disaggregation. Cells released from the first exposure were discarded and cells aspirated from the next four exposures were then added to an equal volume of trypsin deactivating solution consisting of ice-cold culture medium. Cells were centrifuged at 400 g for 10 minutes, resuspended and combined in culture medium, counted with a hemocytometer and diluted to yield a suspension of 5×10^5 cells/ml. 12 ml of suspension were incubated in 100 mm plastic culture dishes containing 7 coverslips (25 mm diameter) placed on the bottom of each dish to serve as substrate for cell growth. Cells were maintained in a humidified atmosphere of 5% CO2 /95% air for 3-4 days yielding a confluent layer of spontaneously contractile myocytes on each coverslip.
Radioactive uptake methods have been described in detail (Piwnica-Worms, D., et al, Circ. (in press). Briefly, coverslips with confluent cells were removed from culture media and pre-equilibrated for 40-60 seconds in MEBSS buffer. Uptake and retention experiments were initiated by immersion of coverslips in 60 mm glass Pyrex dishes containing loading solution consisting of buffer with 0.1-0.6 nM [^99m Tc-MIBI] (0.01-0.4 Ci/nmole; 25-100 uCi/ml). Preparations were removed at various times and rinsed three times in 25 ml volumes of ice-cold (2° C.) isotope-free buffer for 8 seconds each to clear extracellular spaces. Preparations and aliquots of the loading buffer and stock solutions were counted in a well-type sodium iodide gamma counter after which cell protein on each coverslip was extracted in 1% sodium dodecylsulfate with 10 mM sodium borate and assayed by the method of Lowry (Lowry, O. H., et al., J. Biol. Chem. 193:265-275 (1951)). Tc-MIBI binding to glass coverslips without cells was used as an estimate of non-specific adhesion to the substrate ([…] obtained with cellular preparations); this value was subtracted from total uptake determinations to derive the cell-associated counts. Use of generator equilibrium equations (Lamson, M. L., et al., i J. Nucl. Med. 16:639-641 (1975)) allowed calculation of absolute moles of Tc-MIBI in solutions and preparations. Results were therefore expressed as fmol cellular Tc-MIBI/mg protein per nM extracellular Tc-MIBI concentration. Division of this value by the cell water space (6.9 ul/mg protein; Chiu, M. L., et al., J. Nucl. Med. (31:1646-1653(1990)) yields a nominal intracellular/extracellular Tc-MIBI accumulation ratio neglecting subcellular compartmentation of the agent.
To further explore the influence of TPB on any potential-independent accumulation of Tc-MIBI in myocytes, preparations were exposed to 130 mM K° 20 mM Clo buffer (Table 1). […] Equilibration of intracellular and extracellular spaces occurred in the presence of high K buffer plus valinomycin under all conditions (in/out ration ~1; P=NS) indicating the lack of any significant potential-independent membrane binding of Tc-MIBI.
Preparations were incubated in high Ko low Clo loading buffer +/- valinomycin (1 ug/ml) for 20 minutes in the presence of TPB (10^-5 M) or for 40 minutes in its absence to determine peak accumulation of Tc-MIBI under each condition. Values are the mean ±SEM. Tc-MIBI in/out ratios were obtained by dividing net uptake values by the cell water space of […] (Chiu, M. L., et al., J. Nucl. 31:1646-1653 (1990)). +p<0.01; * p<0.001 compared to net uptake in 130 mM Ko buffer.

[2] = test system: cultured chick heart cells; assay: Ko-dependence of Tc-MIBI net uptake in the absence and presence of TPB (FIG. 5); type: cell-based; conditions: absence of TPB; more pronounced in presence of TPB
Procedure: FIG. 5. Ko -dependence of Tc-MIBI net uptake in the absence ( ) and presence (.quadrature.) of TPB (10^-5 M). Peak accumulation of Tc-MIBI was determined in preparations incubated in loading buffers containing the indicated Ko (equimolar replacement of NaCl by KCl) for 40 minutes (control) or for 20 minutes (+TPB). Ko -induced cell volume changes were prevented by addition of bumetanide (10^-5 M) to each buffer. Each point is the mean ±SEM of 3 determinations. Solid lines have no theoretical significance. The dashed line represents the Tc-MIBI content expected at each Ko assuming an intracellular/extracellular Tc-MIBI concentration ratio equal to the Ki /Ko ratio.
Monolayers of spontaneously contractile chick ventricular myocardial cells were obtained from disaggregated 10-day old chick embryo hearts by a slight modification of previously published methods (Horres, C. R., et al., In Pinson, A. (ed.), The Heart Cell in Culture, Boca Raton, CRC Press, pp. 77-108 (1987)). Hearts were trimmed of connective tissue and atria, finely minced and serially exposed to 0.024% (w/v) trypsin in Ca^2+ - and Mg^2+ - free Earle's salt solution for 7 minutes at 37° C. […] Cells were centrifuged at 400 g for 10 minutes, resuspended and combined in culture medium, counted with a hemocytometer and diluted to yield a suspension of 5×10^5 cells/ml. […]

[3] = diagnostic pharmaceutical; cited from earlier work

## [C-]#[N+]CC(C)(C)OC.[C-]#[N+]CC(C)(C)OC.[C-]#[N+]CC(C)(C)OC.[C-]#[N+]CC(C)(C)OC.[C-]#[N+]CC(C)(C)OC.[C-]#[N+]CC(C)(C)OC.[Tc] [Tc-MIBI, hexakis(methoxyisobutylisonitrile)technetium(I)]
[1]; 130 Ko (no TPB)
  Tc-MIBIi/Tc-MIBIo (in/out ratio): 9.5
[1]; 130 Ko (no TPB), 40 minutes
  Tc-MIBI Net Uptake: 65.3 ± 5.3 fmol/mg protein/nMo
[1]; 130 Ko + TPB 10^-5 M
  Tc-MIBIi/Tc-MIBIo (in/out ratio): 13.6
[1]; 130 Ko + TPB 10^-5 M + valinomycin 1 ug/ml
  Tc-MIBIi/Tc-MIBIo (in/out ratio): 1.1
[1]; 130 Ko + TPB 10^-5 M + valinomycin 1 ug/ml, 20 minutes, p<0.001 vs 130 mM Ko
  Tc-MIBI Net Uptake: 7.6 ± 0.8 fmol/mg protein/nMo
[1]; 130 Ko + TPB 10^-5 M, 20 minutes, p<0.01 vs 130 mM Ko
  Tc-MIBI Net Uptake: 93.9 ± 4.4 fmol/mg protein/nMo
[1]; 130 Ko + valinomycin 1 ug/ml
  Tc-MIBIi/Tc-MIBIo (in/out ratio): 0.9
[1]; 130 Ko + valinomycin 1 ug/ml, 40 minutes, p<0.001 vs 130 mM Ko
  Tc-MIBI Net Uptake: 6.2 ± 0.3 fmol/mg protein/nMo
[1]; all conditions, P=NS
  in/out ratio, high K buffer plus valinomycin: ~ 1
[2]
  nominal intracellular/extracellular accumulation ratio vs Ki/Ko ratio: greater than those expected from the Ki /Ko ratios in the absence of TPB
[3]
  safety in humans: shown to be safe in humans as a diagnostic pharmaceutical

Source: patent US5277897A, “In vivo enhancement of cellular accumulation of lipophilic cationic organometallic compounds by reduction of intramembrane potential” (Brigham and Women's Hospital, priority 1992, dated 1994)
